How the values were obtained:
Experiment in all cases: relative viability (nuclei count vs DMSO), 5 days (fraction); higher = more cells survive
NCI-H1395 = tested on: NCI-H1395
Method in brief: (§1)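 Relative viability divides the nuclei count in treated wells by that in vehicle wells. Lung cancer cell lines were seeded in 1536-well plates, dosed by pin tool the next day, and fixed and stained after 5 days in one step with final 0.05% Triton X-100, 1% formaldehyde and 1 ug/ml Hoechst. Dosing was a single drug or a fixed anchor-drug dose plus five library-drug doses (not always all listed) in √10 steps, and values are medians of duplicate plates imaged at 4×.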

NCI-H1915 = tested on: NCI-H1915
Method in brief: as §1

NCI-H1650 = tested on: NCI-H1650
Method in brief: as §1

201T = tested on: 201T
Method in brief: as §1

NCI-H322M = tested on: NCI-H322M
Method in brief: as §1

SW 900 = tested on: SW 900
Method in brief: as §1

HCC-15 = tested on: HCC-15
Method in brief: as §1

NCI-H1651 = tested on: NCI-H1651
Method in brief: as §1

HCC-827 = tested on: HCC-827
Method in brief: as §1

EKVX = tested on: EKVX
Method in brief: as §1

EPLC-272H = tested on: EPLC-272H
Method in brief: as §1

H3255 = tested on: H3255
Method in brief: as §1

NCI-H2023 = tested on: NCI-H2023
Method in brief: as §1

NCI-H460 = tested on: NCI-H460
Method in brief: as §1

NCI-H1648 = tested on: NCI-H1648
Method in brief: as §1

LCLC-97TM1 = tested on: LCLC-97TM1
Method in brief: as §1

NCI-H1792 = tested on: NCI-H1792
Method in brief: as §1

NCI-H596 = tested on: NCI-H596
Method in brief: as §1

NCI-H647 = tested on: NCI-H647
Method in brief: as §1

COR-L23 = tested on: COR-L23
Method in brief: as §1

SK-MES-1 = tested on: SK-MES-1
Method in brief: as §1

NCI-H520 = tested on: NCI-H520
Method in brief: as §1

NCI-H358 = tested on: NCI-H358
Method in brief: as §1

COR-L 105 = tested on: COR-L 105
Method in brief: as §1

## C=C1C(=O)O[C@@H](CCCCCCCC)[C@@H]1C(=O)O [C-75] + CC(=O)Nc1cccc(-n2c(=O)n(C3CC3)c(=O)c3c(Nc4ccc(I)cc4F)n(C)c(=O)c(C)c32)c1 [Trametinib] (partner 0.02 µM)
NCI-H1395; first compound 0.08 µM
  relative viability: 0.973
NCI-H1395; first compound 0.253 µM
  relative viability: 1.05
NCI-H1395; first compound 2.53 µM
  relative viability: 1.03
NCI-H1395; first compound 8 µM
  relative viability: 0.933
NCI-H1915; first compound 0.08 µM
  relative viability: 0.323
NCI-H1915; first compound 0.253 µM
  relative viability: 0.288
NCI-H1915; first compound 0.8 µM
  relative viability: 0.32
NCI-H1915; first compound 2.53 µM
  relative viability: 0.273
NCI-H1915; first compound 8 µM
  relative viability: 0.359
NCI-H1650; first compound 0.08 µM
  relative viability: 0.462
NCI-H1650; first compound 0.253 µM
  relative viability: 0.553
NCI-H1650; first compound 0.8 µM
  relative viability: 0.602
NCI-H1650; first compound 8 µM
  relative viability: 0.555
201T; first compound 0.08 µM
  relative viability: 0.716
201T; first compound 0.253 µM
  relative viability: 0.824
201T; first compound 0.8 µM
  relative viability: 0.731
201T; first compound 2.53 µM
  relative viability: 0.692
201T; first compound 8 µM
  relative viability: 0.763
NCI-H322M; first compound 0.08 µM
  relative viability: 0.513
NCI-H322M; first compound 0.253 µM
  relative viability: 0.673
NCI-H322M; first compound 0.8 µM
  relative viability: 0.547
NCI-H322M; first compound 8 µM
  relative viability: 0.508
SW 900; first compound 0.08 µM
  relative viability: 1.01
SW 900; first compound 0.253 µM
  relative viability: 0.936
SW 900; first compound 0.8 µM
  relative viability: 0.848
SW 900; first compound 2.53 µM
  relative viability: 0.71
SW 900; first compound 8 µM
  relative viability: 0.829
HCC-15; first compound 0.08 µM
  relative viability: 0.387
HCC-15; first compound 0.253 µM
  relative viability: 0.366
HCC-15; first compound 0.8 µM
  relative viability: 0.375
HCC-15; first compound 2.53 µM
  relative viability: 0.33
HCC-15; first compound 8 µM
  relative viability: 0.426
NCI-H1651; first compound 0.08 µM
  relative viability: 0.815
NCI-H1651; first compound 0.253 µM
  relative viability: 0.802
NCI-H1651; first compound 0.8 µM
  relative viability: 0.862
NCI-H1651; first compound 2.53 µM
  relative viability: 0.515
NCI-H1651; first compound 8 µM
  relative viability: 0.892
HCC-827; first compound 0.253 µM
  relative viability: 0.786
HCC-827; first compound 0.8 µM
  relative viability: 0.558
HCC-827; first compound 8 µM
  relative viability: 0.55
EKVX; first compound 0.08 µM
  relative viability: 0.344
EKVX; first compound 0.253 µM
  relative viability: 0.263
EKVX; first compound 0.8 µM
  relative viability: 0.31
EKVX; first compound 8 µM
  relative viability: 0.355
EPLC-272H; first compound 0.08 µM
  relative viability: 0.311
EPLC-272H; first compound 0.253 µM
  relative viability: 0.341
EPLC-272H; first compound 0.8 µM
  relative viability: 0.27
EPLC-272H; first compound 2.53 µM
  relative viability: 0.299
EPLC-272H; first compound 8 µM
  relative viability: 0.363
H3255; first compound 0.08 µM
  relative viability: 0.66
H3255; first compound 0.253 µM
  relative viability: 0.613
H3255; first compound 0.8 µM
  relative viability: 0.647
H3255; first compound 2.53 µM
  relative viability: 0.543
H3255; first compound 8 µM
  relative viability: 0.666
NCI-H2023; first compound 0.08 µM
  relative viability: 0.527
NCI-H2023; first compound 0.253 µM
  relative viability: 0.662
NCI-H2023; first compound 0.8 µM
  relative viability: 0.531
NCI-H2023; first compound 2.53 µM
  relative viability: 0.209
NCI-H2023; first compound 8 µM
  relative viability: 0.483
NCI-H460; first compound 0.08 µM
  relative viability: 0.215
NCI-H460; first compound 0.253 µM
  relative viability: 0.178
NCI-H460; first compound 0.8 µM
  relative viability: 0.123
NCI-H460; first compound 2.53 µM
  relative viability: 0.104
NCI-H460; first compound 8 µM
  relative viability: 0.151
NCI-H1648; first compound 0.08 µM
  relative viability: 0.435
NCI-H1648; first compound 0.253 µM
  relative viability: 0.658
NCI-H1648; first compound 0.8 µM
  relative viability: 0.447
NCI-H1648; first compound 8 µM
  relative viability: 0.443
LCLC-97TM1; first compound 0.08 µM
  relative viability: 0.211
LCLC-97TM1; first compound 0.253 µM
  relative viability: 0.162
LCLC-97TM1; first compound 0.8 µM
  relative viability: 0.193
LCLC-97TM1; first compound 2.53 µM
  relative viability: 0.175
LCLC-97TM1; first compound 8 µM
  relative viability: 0.177
NCI-H1792; first compound 0.08 µM
  relative viability: 0.474
NCI-H1792; first compound 0.253 µM
  relative viability: 0.574
NCI-H1792; first compound 0.8 µM
  relative viability: 0.438
NCI-H1792; first compound 2.53 µM
  relative viability: 0.341
NCI-H1792; first compound 8 µM
  relative viability: 0.452
NCI-H596; first compound 0.08 µM
  relative viability: 1.02
NCI-H596; first compound 0.253 µM
  relative viability: 0.837
NCI-H596; first compound 0.8 µM
  relative viability: 0.815
NCI-H596; first compound 2.53 µM
  relative viability: 0.722
NCI-H596; first compound 8 µM
  relative viability: 0.744
NCI-H647; first compound 0.08 µM
  relative viability: 0.463
NCI-H647; first compound 0.253 µM
  relative viability: 0.533
NCI-H647; first compound 0.8 µM
  relative viability: 0.361
NCI-H647; first compound 2.53 µM
  relative viability: 0.429
NCI-H647; first compound 8 µM
  relative viability: 0.28
COR-L23; first compound 0.08 µM
  relative viability: 0.636
COR-L23; first compound 0.253 µM
  relative viability: 0.58
COR-L23; first compound 0.8 µM
  relative viability: 0.562
COR-L23; first compound 2.53 µM
  relative viability: 0.485
COR-L23; first compound 8 µM
  relative viability: 0.569
SK-MES-1; first compound 0.08 µM
  relative viability: 0.538
SK-MES-1; first compound 0.253 µM
  relative viability: 0.542
SK-MES-1; first compound 0.8 µM
  relative viability: 0.48
SK-MES-1; first compound 2.53 µM
  relative viability: 0.478
SK-MES-1; first compound 8 µM
  relative viability: 0.438
NCI-H520; first compound 0.08 µM
  relative viability: 0.689
NCI-H520; first compound 0.253 µM
  relative viability: 0.816
NCI-H520; first compound 0.8 µM
  relative viability: 0.593
NCI-H520; first compound 2.53 µM
  relative viability: 0.48
NCI-H520; first compound 8 µM
  relative viability: 0.533
NCI-H358; first compound 0.08 µM
  relative viability: 0.158
NCI-H358; first compound 0.253 µM
  relative viability: 0.13
NCI-H358; first compound 0.8 µM
  relative viability: 0.151
NCI-H358; first compound 8 µM
  relative viability: 0.121
COR-L 105; first compound 0.08 µM
  relative viability: 0.425
COR-L 105; first compound 0.253 µM
  relative viability: 0.458
COR-L 105; first compound 0.8 µM
  relative viability: 0.428
COR-L 105; first compound 2.53 µM
  relative viability: 0.427
COR-L 105; first compound 8 µM
  relative viability: 0.497
